Literature values, collected in patent US9925200B2, “Stable formulations of testosterone undecanoate” (Merck Sharp & Dohme B.V., priority 2014, dated 2018).

Legend:
[1] = not given; remark: listed apart in the source

SMILES: CCCCCCCCCCC(=O)O[C@H]1CC[C@H]2[C@@H]3CCC4=CC(=O)CC[C@]4(C)[C@H]3CC[C@]12C [Testosterone undecanoate]
- Log P: 9.1
- water solubility [1]: very low
